From the NIST ThermoML archive (doi:10.1021/je100353j)
Values joined by “and” are separate entries in the source; they are usually repeats but may differ in a detail not shown here. Equal entries are not always repeated.

Settings: Liquid

COC(=O)OC [dimethyl carbonate]
mass density
Settings | 101.33 kPa | 5000 kPa | 10000 kPa | 20000 kPa | 30000 kPa | 40000 kPa
293.15 K | 1069.8 kg/m3 | 1074.4 kg/m3 | 1078.6 kg/m3 | 1086.9 kg/m3 | 1094.5 kg/m3 | 1101.9 kg/m3
298.15 K | 1063.2 kg/m3 | 1068 kg/m3 | 1072.4 kg/m3 | 1080.8 kg/m3 | 1088.7 kg/m3 | 1096.2 kg/m3
303.15 K | 1056.5 kg/m3 | 1061.3 kg/m3 | 1066 kg/m3 and 1065 kg/m3 | 1074.7 kg/m3 | 1082.9 kg/m3 | 1090.4 kg/m3
308.15 K | 1049.8 kg/m3 | 1054.6 kg/m3 | 1059.4 kg/m3 | 1068.5 kg/m3 | 1077 kg/m3 | 1084.8 kg/m3
313.15 K | 1043 kg/m3 | 1048.1 kg/m3 | 1053 kg/m3 | 1062.3 kg/m3 | 1071 kg/m3 | 1079 kg/m3
